# Measurements taken from PMC4607367, “Gedunin and Azadiradione: Human Pancreatic Alpha-Amylase Inhibiting Limonoids from Neem (Azadirachta indica) as Anti-Diabetic Agents” (PLoS ONE, 2015).
# How the values were obtained:
# [1] = biological target: T1, Human pancreatic α-amylase (HPA) (Homo sapiens, UniProt P04746); assay: Ligand binding to HPA by fluorescence quenching titration, thermodynamic parameters
# T1 construct: purchased Sigma Aldrich, USA
# T1 sequence (P04746 16-511): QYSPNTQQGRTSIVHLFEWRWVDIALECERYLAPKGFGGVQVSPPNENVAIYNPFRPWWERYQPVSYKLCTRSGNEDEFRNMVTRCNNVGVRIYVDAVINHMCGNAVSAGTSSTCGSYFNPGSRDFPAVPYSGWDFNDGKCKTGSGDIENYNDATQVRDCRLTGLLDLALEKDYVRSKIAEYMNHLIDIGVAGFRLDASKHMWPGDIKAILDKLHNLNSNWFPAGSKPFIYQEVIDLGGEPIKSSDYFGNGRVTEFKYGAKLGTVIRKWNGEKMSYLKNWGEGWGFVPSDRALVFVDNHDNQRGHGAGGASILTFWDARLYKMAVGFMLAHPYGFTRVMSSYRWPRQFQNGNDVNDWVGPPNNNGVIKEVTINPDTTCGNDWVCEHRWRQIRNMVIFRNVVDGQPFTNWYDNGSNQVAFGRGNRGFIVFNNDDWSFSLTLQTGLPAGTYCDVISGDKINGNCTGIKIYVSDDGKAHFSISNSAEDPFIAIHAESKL
# Experimental: Ligand binding studies using fluorescence measurements of HPA were carried as described in our earlier report. […] Non-linear and linear regression analyses were used to analyze the data.
# The thermodynamic parameters, association constants (K a), dissociation constant (K d) and Gibbs free energy (ΔG°) of binding for azadiradione and gedunin were determined at various temperatures 25°C to 60°C by fluorescence quenching studies.
# [2] = biological target: T1, Human pancreatic α-amylase (HPA); assay: Human pancreatic α-amylase inhibition and stoichiometry (DNSA); assay type: biochemical; details: percentage inhibition versus molar ratio of HPA and inhibitor; HPA 14.85 μM
# Text: The control HPA (0.25 U) without inhibitors represented 100% enzyme activity.
# [3] = biological target: T2, secreted pancreatic α-amylase of AR42J cells (Rattus norvegicus, UniProt P00689); assay: Bioactivity: inhibition of secreted pancreatic α-amylase in dexamethasone-induced AR42J cells, incl. starch load test (DNSA); assay type: cell-based; details: AR42J
# T2 construct: host or cells: AR42J rat pancreatic acinar cells, induced with 10 nM dexamethasone
# T2 sequence (P00689 16-508): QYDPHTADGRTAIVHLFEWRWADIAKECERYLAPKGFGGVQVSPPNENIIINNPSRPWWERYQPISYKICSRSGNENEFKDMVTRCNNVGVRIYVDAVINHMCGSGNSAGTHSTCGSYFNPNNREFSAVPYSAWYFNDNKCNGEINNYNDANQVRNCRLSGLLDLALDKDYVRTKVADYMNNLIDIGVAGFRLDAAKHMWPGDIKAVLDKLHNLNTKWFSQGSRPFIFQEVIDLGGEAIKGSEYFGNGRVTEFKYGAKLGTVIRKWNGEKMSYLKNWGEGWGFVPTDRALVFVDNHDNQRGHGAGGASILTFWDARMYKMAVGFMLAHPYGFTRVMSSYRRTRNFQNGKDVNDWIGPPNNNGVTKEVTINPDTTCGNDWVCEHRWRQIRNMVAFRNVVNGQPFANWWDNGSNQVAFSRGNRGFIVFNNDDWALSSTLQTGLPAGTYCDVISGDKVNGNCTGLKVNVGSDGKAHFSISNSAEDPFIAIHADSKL
# Text: Appropriate medium and DMSO controls were simultaneously set up.
# [4] = biological target: T3, Porcine pancreatic α-amylase (PPA) (Sus scrofa, UniProt P00690); assay: Porcine pancreatic α-amylase inhibition assay, chromogenic DNSA method (primary screening); assay type: biochemical; details: starch 1% w/v, pH 6.9, 37°C
# T3 construct: purchased SRL, Mumbai, India
# T3 sequence (P00690 16-511): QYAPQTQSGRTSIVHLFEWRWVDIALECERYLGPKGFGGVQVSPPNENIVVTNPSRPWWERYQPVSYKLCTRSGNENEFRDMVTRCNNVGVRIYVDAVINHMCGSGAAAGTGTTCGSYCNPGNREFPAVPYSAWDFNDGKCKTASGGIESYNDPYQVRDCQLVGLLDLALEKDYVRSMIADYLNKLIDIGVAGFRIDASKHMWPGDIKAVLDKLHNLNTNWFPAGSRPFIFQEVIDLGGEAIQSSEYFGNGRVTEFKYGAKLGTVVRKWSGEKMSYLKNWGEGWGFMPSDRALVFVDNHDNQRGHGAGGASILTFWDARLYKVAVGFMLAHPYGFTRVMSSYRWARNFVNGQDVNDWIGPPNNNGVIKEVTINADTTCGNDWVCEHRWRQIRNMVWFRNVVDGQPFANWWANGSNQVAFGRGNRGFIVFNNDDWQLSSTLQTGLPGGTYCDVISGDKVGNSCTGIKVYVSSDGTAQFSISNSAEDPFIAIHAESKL
# Experimental: The inhibition assay was performed using the chromogenic DNSA method. PPA was used for preliminary screening of α-amylase inhibitors. […] Moreover a high degree gene sequence similarity (~ 90%) exists between human salivary α-amylase (HSA) and PPA as reported by (Buisson et al 1987). Brayer et al (1995) have reported 97% primary sequence similarity between human salivary and human pancreatic α-amylases and a 70% structural similarity between PPA and HPA [11]. Thus, a high degree of similarity between PPA and HPA allows us to use it as the enzyme for screening inhibitors.
# In brief, the total assay mixture consisting of 0.02 M sodium phosphate buffer, pH6.9, (containing 6 mM NaCl), 0.2–0.25 U of PPA and inhibitors (13.8–214.3 μM) in DMSO was incubated at 37°C for 10 min. After pre-incubation, the substrate starch (1%, w/v) solution was added to the reaction mixture and further incubated for 15 min. The control PPA (0.21 U) without any inhibitor represented 100% enzyme activity. One unit of enzyme activity is defined as the amount of enzyme required to release one micromole of maltose from starch/maltopentaose per min under the assay conditions. The other quantifiers calculated were: % Relative enzyme activity = (enzyme activity of test/enzyme activity of control)*100. % inhibition = (100 − % relative enzyme activity).
# The IC50 values were determined from plots of percent inhibition versus inhibitor concentration and calculated by logarithmic regression analysis. To eliminate the absorbance produced by the compound, appropriate controls were included. The known PPA/HPA inhibitor acarbose was used as a positive control at a concentration range of 10–50 μM.
# [5] = system: AR42J rat pancreatic acinar cells; assay: Cytotoxicity in AR42J cell line (MTT); details: AR42J; azadiradione 3.5 μM, gedunin 3.3 μM (Fig 3)
# Experimental: (§1) Cells were seeded at 2×10^4 cells well^-1 onto 96 wells culture dish. […] Appropriate medium and DMSO controls were simultaneously set up. […] At the end of 24 h incubation period the culture media was removed from the samples and fresh culture media (100 μl) containing 20 μl of MTT tetrazolium bromide (5 mg ml^-1) added and incubated for 3 h at 37°C. Metabolically active cells reduce MTT to insoluble purple formazan dye crystals, which were dissolved by addition of 300 μl DMSO solution at the end of the incubation period and quantitated at 550 nm [34].
# [6] = Cytotoxicity in AR42J cell line (MTT); details: rat, AR42J pancreatic acinar cells
# Experimental: as §1
# [7] = system: AR42J rat pancreatic acinar cells; details: 24 h, 3.5 μM
# Experimental: as §1
# [8] = biological target: T1, Human pancreatic α-amylase (HPA); assay: HPA inhibition kinetics (Michaelis-Menten, Lineweaver-Burk, secondary plots); assay type: biochemical
# Experimental: The mode of inhibition of HPA by the lead inhibitors azadiradione and gedunin were determined using Michaelis-Menton and Lineweaver-Burk equations. Starch (1–5mg ml^-1) and maltopentaose (0.05–0.4mM) were incubated with inhibitors-HPA for 10 and 2.5 min, respectively and the residual enzyme activity determined by DNSA method for starch and Nelson-Somogyi’s method for maltopentaose.The inhibitor constants(K i) were determined on the basis of mode of inhibition.
# [9] = linear van't Hoff plot, 298–333 K
smiles,measurement,setting,value
CC(=O)O[C@@H]1C[C@H]2C(C)(C)C(=O)C=C[C@]2(C)[C@H]2CC[C@]3(C)C(=CC(=O)[C@H]3c3ccoc3)[C@@]21C [azadiradione],-ΔG°,[1]; 298 K,21.25 k J mol^-1
same,K a,[1]; 298 K,4300 M⁻¹
same,Kd,[1]; 298 K,200 ± 3 µM
same,-ΔG°,[1]; 303 K,20.88 k J mol^-1
same,K a,[1]; 303 K,3900 M⁻¹
same,Kd,[1]; 303 K,200 ± 1 µM
same,-ΔG°,[1]; 308 K,20.27 k J mol^-1
same,K a,[1]; 308 K,2700 M⁻¹
same,Kd,[1]; 308 K,300 ± 5 µM
same,-ΔG°,[1]; 313 K,20.29 k J mol^-1
same,K a,[1]; 313 K,2400 M⁻¹
same,Kd,[1]; 313 K,400 ± 7 µM
same,-ΔG°,[1]; 323K,19.87 k J mol^-1
same,K a,[1]; 323K,1600 M⁻¹
same,Kd,[1]; 323K,600 ± 2 µM
same,-ΔG°,[1]; 333K,18.54 k J mol^-1
same,K a,[1]; 333K,810 M⁻¹
same,Kd,[1]; 333K,1200 ± 30 µM
same,Maximal quenching of intrinsic HPA fluorescence,"[1]; 350 nm, azadiradione 3.9–118 μM, gedunin 2.0–51.86 μM",33%
same,Maximum ΔG° of binding,"[1]; calculated from binding constants, maximal affinity at 298 K",-5.079 kcal/mol
same,Enthalpy (ΔHvH),[1]; [9],-10 kcal/mol
same,Entropy (-ΔS),[1]; [9],70.09 J mol^-1K^-1
same,Stoichiometry of HPA inactivation,[2],0.66
same,Secreted amylase inhibition in starch load test,"[3]; 0.5% (w/v) starch, up to two hours",22.9%
same,Amylase inhibition at the cytotoxic IC50 concentration,"[3]; 24 h, at 11.1, 13.4 and 4.1 μM respectively",70.1%
same,inhibition at 3.5 µM,"[3]; AR-42J, 3.5 μM",41.8%
same,IC50,[4],138 µM
same,Cell morphology versus controls,[5],no morphological change
same,IC50 at 24 h,[6],11.1 µM
same,Cell death,[7],8.6%
same,Ki,"[8]; maltopentaose as substrate, secondary plots",42.2 µM
same,Apparent K i ′,"[8]; starch as substrate, secondary plots",75.8 µM
same,Mode of HPA inhibition,"[8]; substrates starch and maltopentaose, Lineweaver-Burk",mixed
